From ChEMBL document CHEMBL1201862, “PubChem BioAssay data set” (2004)
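Growth conditions: 96-well plates. Treatment: test compound, 48 hours, 5 concentrations. Analysis: linear interpolation between bracketing concentrations; unreached endpoints set to highest concentration. GI50: concentration for 50% inhibition of growth.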 Calls of active or inactive are those of the source. Rule as the data show it: active = GI50 up to about 1.1 µM and inactive = higher.

Tests used:
Test in all cases: growth of human tumour cells (NCI), 48 h
KM-20L2 = test system: KM-20L2
RXF 631 = test system: RXF 631
HOP-18 = test system: HOP-18
XF498 = test system: XF498
PC-3 = test system: PC-3
DU-145 = test system: DU-145
Hs-578T = test system: Hs-578T
786-0 = test system: 786-0
MDA-N = test system: MDA-N

`COc1ccc(/C(Cl)=C(\C=O)c2ccc(OC)cc2)cc1` was tested, and the GI50 (KM-20L2) was > 100 µM (inactive), the GI50 (RXF 631) was 58.3 µM (inactive) and the GI50 (HOP-18) was 63.8 µM (inactive).

For `O=[N+]([O-])c1ccc(C2=Nc3ccccc3SC(c3ccccc3)C2)cc1` (centres undefined), the GI50 (XF498) was 17.5 µM (inactive) and the GI50 (KM-20L2) was 17.6 µM (inactive).

For `N[C@@H](CSCSC[C@H](N)C(=O)O)C(=O)O`, the GI50 (XF498) was > 225 µM (inactive), the GI50 (KM-20L2) was > 164 µM (inactive) and the GI50 (HOP-18) was > 225 µM (inactive).

In the case of `N=c1c2c(=S)n(-c3ccccc3)c(=S)n(-c3ccccc3)c2nc(SCCCN2CCN(c3cccc(Cl)c3)CC2)n1-c1ccccc1`, the GI50 (PC-3) is reported as 43.9 µM (inactive), the GI50 (DU-145) is reported as 52.8 µM (inactive) and the GI50 (Hs-578T) is reported as > 100 µM (inactive).

For `CC(C)=CC(=O)OC1C2C(C)=CC(O)C(O)C2(C)C2C3(O)OCC24C(CC(=O)OC14)C(C)C3O` (centres undefined), the GI50 (XF498) was 0.122 µM (active), the GI50 (KM-20L2) was 0.354 µM (active) and the GI50 (HOP-18) was 1.11 µM (active).

With `CC1OC(O)CC(OC(=O)c2ccccc2)C1OC(=O)c1ccccc1` (centres undefined) the GI50 (XF498) was 19.9 µM (inactive), the GI50 (KM-20L2) was 66.2 µM (inactive) and the GI50 (HOP-18) was 26.3 µM (inactive). For the same compound, the GI50 (786-0) was 29.4 µM (inactive).

For `Nc1cc(S(=O)(=O)O)cc2cc(S(=O)(=O)O)c(/N=N/c3ccc(-c4ccc(/N=N/c5c(S(=O)(=O)O)cc6cc(S(=O)(=O)O)cc(N)c6c5O)cc4)cc3)c(O)c12`, the GI50 (XF498) was > 100 µM (inactive), the GI50 (KM-20L2) was > 100 µM (inactive) and the GI50 (HOP-18) was > 100 µM (inactive).

For `CNc1ccccc1-c1nc2ccccc2c(=O)o1`, the GI50 (XF498) was 31 µM (inactive), the GI50 (KM-20L2) was > 100 µM (inactive) and the GI50 (RXF 631) was > 100 µM (inactive). The GI50 (HOP-18) was > 100 µM (inactive).

With `CC1(C)CC[C@]2(C)CC[C@]3(C)C(=CC[C@@H]4[C@@]5(C)CCC(=O)C(C)(C)[C@@H]5[C@H](O)C[C@]43C)[C@@H]2C1` the GI50 (MDA-N) was 15.6 µM (inactive), the GI50 (PC-3) was 17.1 µM (inactive) and the GI50 (DU-145) was 18.2 µM (inactive). The GI50 (Hs-578T) was 19.5 µM (inactive) and the GI50 (786-0) was 15.5 µM (inactive).

In the case of `COC(=O)c1ccc(/C=C2\N=C(C)OC2=O)cc1`, the GI50 (XF498) is reported as > 100 µM (inactive), the GI50 (KM-20L2) is reported as > 100 µM (inactive) and the GI50 (RXF 631) is reported as > 100 µM (inactive). For the same compound, the GI50 (HOP-18) was > 100 µM (inactive).

`CSCC(CO)NC(=O)/C=C/c1c(C)[nH]c(=O)[nH]c1=O` (centres undefined) was tested, and the GI50 (XF498) was 311 µM (inactive), the GI50 (KM-20L2) was 415 µM (inactive) and the GI50 (HOP-18) was > 875 µM (inactive).

For `CC(=O)OC/C=C\Cn1ncc(=O)[nH]c1=O`, the GI50 (MDA-N) was 14.9 µM (inactive), the GI50 (PC-3) was 16 µM (inactive) and the GI50 (DU-145) was 24.2 µM (inactive). The GI50 (Hs-578T) was 27.7 µM (inactive).

For `CN1C2CCC1CC(C)(O)C2` (centres undefined), the GI50 (MDA-N) was > 100 µM (inactive), the GI50 (PC-3) was > 100 µM (inactive) and the GI50 (DU-145) was > 100 µM (inactive).

In the case of `COC(=O)/C=C(\C)CCC1SC1(C)C` (centres undefined), the GI50 (XF498) is reported as > 100 µM (inactive), the GI50 (KM-20L2) is reported as > 100 µM (inactive) and the GI50 (HOP-18) is reported as > 100 µM (inactive). For the same compound, the GI50 (786-0) was > 100 µM (inactive).

With `C/C(=N\O)C1CC(CC(=O)O)C1(C)C` (centres undefined) the GI50 (MDA-N) was > 100 µM (inactive), the GI50 (PC-3) was > 100 µM (inactive) and the GI50 (DU-145) was > 100 µM (inactive). For the same compound, the GI50 (Hs-578T) was > 100 µM (inactive) and the GI50 (786-0) was > 100 µM (inactive).

With `S=C1SC(=N\c2ccccc2)/C(=N/c2ccccc2)N1c1ccccc1` the GI50 (MDA-N) was > 100 µM (inactive), the GI50 (PC-3) was > 100 µM (inactive) and the GI50 (DU-145) was > 100 µM (inactive). For the same compound, the GI50 (Hs-578T) was 27.9 µM (inactive).

In the case of `CCOCCOc1ccc(OCCOCC)cc1`, the GI50 (XF498) is reported as 16.4 µM (inactive), the GI50 (KM-20L2) is reported as 26.2 µM (inactive) and the GI50 (HOP-18) is reported as 10.7 µM (inactive).

`O=C(c1ccco1)C1CC(c2c(O)ccc3ccccc23)=NN1` (centres undefined) was tested, and the GI50 (MDA-N) was 12.6 µM (inactive), the GI50 (PC-3) was 8.79 µM (inactive) and the GI50 (DU-145) was 14.1 µM (inactive). The GI50 (Hs-578T) was 18.5 µM (inactive).
